Data: patent US11661440B2 (priority 2015, dated 2023)
Ends that are not written are not given here.

Key:
NMDA receptor = format: cell-based, rat
[1] = biological target: NR1a/NR2B (GluN1-a/GluN2B) recombinant NMDA receptor (Rattus norvegicus, UniProt Q00960); format: cell-based
[2] = biological target: NR1a/NR2A (GluN1-a/GluN2A) recombinant NMDA receptor (Rattus norvegicus, UniProt Q00959); format: cell-based
Chain of NR1a/NR2A (GluN1-a/GluN2A) recombinant NMDA receptor (Q00959 whole entry, looked up): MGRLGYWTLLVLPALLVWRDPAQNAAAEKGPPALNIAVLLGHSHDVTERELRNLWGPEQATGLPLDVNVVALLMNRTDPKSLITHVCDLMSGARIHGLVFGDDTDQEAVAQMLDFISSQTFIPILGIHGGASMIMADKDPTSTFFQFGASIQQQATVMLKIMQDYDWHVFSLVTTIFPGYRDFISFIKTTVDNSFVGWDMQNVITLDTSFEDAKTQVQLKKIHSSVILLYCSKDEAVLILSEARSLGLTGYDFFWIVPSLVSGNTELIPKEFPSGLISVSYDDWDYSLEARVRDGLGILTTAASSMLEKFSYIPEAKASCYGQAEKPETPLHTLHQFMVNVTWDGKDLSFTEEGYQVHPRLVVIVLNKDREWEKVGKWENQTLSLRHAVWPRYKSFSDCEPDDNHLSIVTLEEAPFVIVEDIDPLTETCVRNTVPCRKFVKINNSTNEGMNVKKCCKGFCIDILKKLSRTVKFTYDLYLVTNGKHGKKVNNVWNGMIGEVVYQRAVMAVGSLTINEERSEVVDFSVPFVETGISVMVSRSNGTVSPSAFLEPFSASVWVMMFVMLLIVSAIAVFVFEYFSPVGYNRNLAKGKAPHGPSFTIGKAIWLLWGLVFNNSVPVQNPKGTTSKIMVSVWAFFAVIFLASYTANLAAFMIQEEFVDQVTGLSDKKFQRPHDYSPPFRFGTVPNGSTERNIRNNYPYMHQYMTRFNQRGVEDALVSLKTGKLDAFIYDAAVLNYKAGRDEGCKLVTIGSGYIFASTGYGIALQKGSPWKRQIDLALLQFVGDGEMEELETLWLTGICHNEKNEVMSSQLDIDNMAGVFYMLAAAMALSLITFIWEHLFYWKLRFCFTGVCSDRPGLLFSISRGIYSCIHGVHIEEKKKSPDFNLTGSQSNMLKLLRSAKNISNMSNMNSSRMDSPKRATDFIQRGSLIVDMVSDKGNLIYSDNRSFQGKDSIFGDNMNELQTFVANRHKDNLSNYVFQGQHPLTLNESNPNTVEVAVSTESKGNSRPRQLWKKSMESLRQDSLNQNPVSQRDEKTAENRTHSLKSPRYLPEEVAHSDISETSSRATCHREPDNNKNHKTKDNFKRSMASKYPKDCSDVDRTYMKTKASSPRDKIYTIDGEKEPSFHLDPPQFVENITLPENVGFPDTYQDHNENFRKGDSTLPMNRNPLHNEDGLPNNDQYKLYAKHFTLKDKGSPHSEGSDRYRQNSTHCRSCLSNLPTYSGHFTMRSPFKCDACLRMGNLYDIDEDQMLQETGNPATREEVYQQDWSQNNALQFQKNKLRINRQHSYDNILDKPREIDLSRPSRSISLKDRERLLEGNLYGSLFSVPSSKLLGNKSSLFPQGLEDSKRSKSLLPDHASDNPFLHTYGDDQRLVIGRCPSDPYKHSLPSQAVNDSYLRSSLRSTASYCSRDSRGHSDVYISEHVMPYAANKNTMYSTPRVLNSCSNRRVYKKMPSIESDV

Chain of NR1a/NR2B (GluN1-a/GluN2B) recombinant NMDA receptor (Q00960 whole entry, looked up): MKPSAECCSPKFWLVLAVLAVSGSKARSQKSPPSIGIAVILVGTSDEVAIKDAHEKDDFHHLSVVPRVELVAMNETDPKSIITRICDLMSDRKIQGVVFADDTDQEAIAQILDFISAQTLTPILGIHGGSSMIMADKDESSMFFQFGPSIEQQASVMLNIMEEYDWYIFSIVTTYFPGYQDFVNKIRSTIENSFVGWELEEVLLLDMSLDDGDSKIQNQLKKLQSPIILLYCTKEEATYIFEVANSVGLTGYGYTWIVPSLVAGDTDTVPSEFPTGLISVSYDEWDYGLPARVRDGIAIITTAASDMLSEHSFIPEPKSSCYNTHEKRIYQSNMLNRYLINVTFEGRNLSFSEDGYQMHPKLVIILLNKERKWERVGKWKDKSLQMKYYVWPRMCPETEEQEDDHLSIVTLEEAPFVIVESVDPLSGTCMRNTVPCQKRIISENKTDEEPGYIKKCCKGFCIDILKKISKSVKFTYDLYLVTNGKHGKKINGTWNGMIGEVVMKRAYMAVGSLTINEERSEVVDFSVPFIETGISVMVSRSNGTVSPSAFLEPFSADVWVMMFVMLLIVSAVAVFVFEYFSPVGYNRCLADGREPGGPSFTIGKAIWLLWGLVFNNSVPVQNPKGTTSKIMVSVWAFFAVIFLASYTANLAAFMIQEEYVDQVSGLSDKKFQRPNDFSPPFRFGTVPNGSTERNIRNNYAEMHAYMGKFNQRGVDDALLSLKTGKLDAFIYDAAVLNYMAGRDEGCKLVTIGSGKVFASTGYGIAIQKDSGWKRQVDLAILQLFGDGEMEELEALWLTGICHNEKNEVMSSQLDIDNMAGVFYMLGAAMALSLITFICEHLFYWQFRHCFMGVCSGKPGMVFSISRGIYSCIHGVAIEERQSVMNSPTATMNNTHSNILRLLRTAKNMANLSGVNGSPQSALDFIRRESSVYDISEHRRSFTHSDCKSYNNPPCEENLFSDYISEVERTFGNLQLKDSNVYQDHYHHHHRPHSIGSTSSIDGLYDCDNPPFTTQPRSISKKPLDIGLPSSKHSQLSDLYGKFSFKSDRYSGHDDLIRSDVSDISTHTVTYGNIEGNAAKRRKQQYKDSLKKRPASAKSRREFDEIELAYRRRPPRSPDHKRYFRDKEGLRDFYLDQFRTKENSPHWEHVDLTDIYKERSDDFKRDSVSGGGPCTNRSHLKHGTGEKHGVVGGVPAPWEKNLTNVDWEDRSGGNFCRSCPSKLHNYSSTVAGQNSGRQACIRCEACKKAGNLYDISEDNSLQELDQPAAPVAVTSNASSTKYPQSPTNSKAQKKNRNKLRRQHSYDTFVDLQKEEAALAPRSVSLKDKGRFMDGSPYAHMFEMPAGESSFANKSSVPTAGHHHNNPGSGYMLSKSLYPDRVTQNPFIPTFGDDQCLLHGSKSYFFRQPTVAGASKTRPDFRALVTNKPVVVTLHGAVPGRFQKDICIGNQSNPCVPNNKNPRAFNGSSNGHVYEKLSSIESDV

Which results are given for GEDDLQDNQDLIRDKSN [SEQ ID NO: 2]?
inhibition in some registers (NMDA receptor): ~40%; IC50 (NMDA receptor; read-out: IC50 for inhibition of NMDA receptor-evoked current (dose-response curve)): 202 µM; blocking of evoked current (in words) [1]: Almost total blocking of the current; selectivity between GluN2B and GluN2A subunits (in words) [1]: selectivity for subunit GluN2B rather than GluN2A; reduction of evoked current (in words) [2]: slight reduction in current
